Assays:
APAP overdose = test: Survival of mice after APAP overdose; type: in vivo, C57 BL/6 mice; conditions: FIG. 10
Description: Studies were then performed where C57 BL/6 mice received APAP overdose of 500 mg/kg. NACA or NAC was administered (106 mg/kg) 1.5 hours post APAP and at every 12 hours thereafter until 72 hours. The APAP group had 6 mice and the NAC and NACA groups contained 4. Mice treated with NACA/APAP survived for 150 hours, while mice treated with APAP or NAC/APAP had 60% and 30% survival respectively (FIG. 10).

[1] = tested on: APAP-induced hepatotoxicity; test: Protective effects in APAP-induced hepatotoxicity (oxidative stress and organ injury markers); type: in vivo, C57BL/6 mice
Description: Studies were then performed to evaluate the protective effects of NACA in APAP-induced hepatotoxicity using male C57BL/6 mice that were intraperitoneally injected with 400 mg/kg of APAP after 15 hours of fasting. The therapeutic potentials of NAC and NACA were compared by administering NAC/NACA (106 mg/kg) after 1.5 hours of APAP administration and sacrificing the mice 4 hours after the APAP administration. The GSH/GSSG ratio, a crucial antioxidant parameter, and malondialdehyde (MDA) levels were measured in liver tissue.
Alanine aminotransferase (ALT) and glutamate dehydrogenase levels were also measured in serum (FIG. 3). These are markers of livery injury.

SMILES | survival (APAP overdose; APAP 500 mg/kg, 106 mg/kg 1.5 hours post APAP and every 12 hours until 72 hours) | oxidative stress in a number of tissues ([1]; APAP administration) | liver injury (serum ALT and glutamate dehydrogenase levels) ([1]; APAP alone, FIG. 3) | blood urea nitrogen (BUN) ([1]; APAP alone, FIG. 9) | serum creatine kinase (CK) ([1]; APAP alone, FIG. 9) | survival (APAP overdose; APAP overdose of 500 mg/kg alone)
CC(=O)N[C@@H](CS)C(=O)O [NAC, N-acetylcysteine] | 30% |  |  |  |  | 
CC(=O)Nc1ccc(O)cc1 [APAP, N-acetyl-p-aminophenol] |  | increases | causes liver injury | increases | increases | 60%

Source: US20200069617A1, “USE OF N-ACETYLCYSTEINE AMIDE IN THE TREATMENT OF ACETAMINOPHEN OVERDOSE” (priority 2015, published 2020)
